Legend:
MM cells [1] = assay: Anti-MM activity of reversine analog; format: cell-based; settings: FIG. 14
Experimental: MTT cell survival assay. Viability of cells treated with reversine, alone or combined with other agents, was assessed by measuring 3-(4,5-dimethylthiazol-2-yl)-2,5-diphenyl tetrasodium bromide (MTT, Chemicon International, Temecula, Calif.) dye absorbance. Cells were pulsed with 1:10 the culture volume of 5 mg/ml MTT to each well for the last 4 hrs of 72 hr cultures, followed by 1.5-3 fold the culture volume of isopropanol containing 0.04N HCl. Absorbance was measured at 570/630 nm using a spectrophotometer (Molecular Devices Corp., Sunnyvale Calif.). Recombinant human IL-6 and IGF (R&D Systems; Minneapolis, Minn.) was used at 10 ng/mL and 50 ng/mL respectively, as indicated. For testing normal PBMCs, healthy donor blood was collected using heparinized tubes, separated by Ficoll (Amersham Biosciences; Sweden) gradient separation and plated at 150,000 cells per well and pre-stimulated, as indicated, with 5 ng/mL PHA (Sigma) for 24 hrs.

[2] = test system: tumor cell lines, including myeloma, leukemia, lymphoma and thyroid
From the text: Cell lines. ARD, ARH-77, ARK, ARO, ARP-1, BHT101, BHP-10-3, BHP-14-9, BHP-17-10, BHP-18-17, BHP-19-24, BHP2-7, BHP-5, BHP-7, DHL-4, DHL-6, DHL-7, DHL-8, DHL-10, Dox6, EJM, FRO, IM9, INA-6, JJN3, KAT-4, KAT-4B, KAT4C, KAT18, KMS-1, KMS-11, KMS-12BM, KMS-18, KMS-20, KMS-26, KMS-28-BM, KMS-28-PE, KMS-34, KMS-5, L363, LPCL-HO, LRS, MM-AS, MEG-01, MM144, MM-1R, MM-1S, MM1S-Akt, MMSV, Namalwa, NCI-H929, NOP2, NPA, OCI MY1, OCI-MY5, OCI-My7, OPM-1, OPM-2, OPM-6, RPMI8226, S6B45, SKMM2, SW579, SW1736, THLE-3, TK PCL, TT, U266, WM-WSU, WRO, XG1, and ZR-75-1 were grown in either Dulbecco's modified Eagle's medium (DMEM) (BioWhittaker, Walkersville, Md.) or Roswell Park Memorial Institute medium (RPMI) (BioWhittaker) with 100 U/ml penicillin, 100 μg/ml streptomycin and 10% fetal calf serum (FCS) (GIBCO/BRL, Gaithersburg, Md.), unless stated otherwise.
(§1) MTT cell survival assay. Viability of cells treated with reversine, alone or combined with other agents, was assessed by measuring 3-(4,5-dimethylthiazol-2-yl)-2,5-diphenyl […] bromide (MTT, Chemicon International, Temecula, Calif.) dye absorbance. Cells were pulsed with 1:10 the culture volume of 5 mg/ml MTT to each well for the last 4 hrs of 72 hr cultures, followed by 1.5-3 fold the culture volume of isopropanol containing 0.04N HCl. Absorbance was measured at 570/630 nm using a spectrophotometer (Molecular Devices Corp., Sunnyvale Calif.). Recombinant human IL-6 and IGF (R&D Systems; Minneapolis, Minn.) was used at 10 ng/mL and 50 ng/mL respectively, as indicated. For testing normal PBMCs, healthy donor blood was collected using heparinized tubes, separated by Ficoll (Amersham Biosciences; Sweden) gradient separation and plated at 150,000 cells per well and pre-stimulated, as indicated, with 5 ng/mL PHA (Sigma) for 24 hrs.

MM cells [3] = settings: combined with dexamethasone (5 nM)
Experimental: as §1

MM.1S tumor cell line = test system: MM.1S tumor cell line
Experimental: as §1

hepatocytes = settings: 1 microM, in vitro
Experimental: as §1

[4] = test system: peripheral blood mononuclear cells (PBMCs)
Experimental: as §1

[5] = test system: primary myeloma tumor specimens from heavily pre-treated patients
Experimental: as §1

stromal cells = settings: 1 microM, in vitro
Experimental: as §1

MM cell lines = settings: reversine 1 μM, washout, then drug-free medium
Experimental: Cell death commitment assay. The minimum time length of exposure to reversine that is required to commit MM cells to apoptosis was evaluated by incubating cells in 24-well plates with reversine (1 μM) for 1, 2, 4, 8, 16 or 24 hours. At the end of this incubation, the cells were washed 3 times and incubated in drug-free medium for an additional 3 days, resulting in equal length of total incubation for all experimental conditions ([…]), at which point cell survival was quantified by MTT, as above, and expressed as percentage of the value obtained from respective controls.

[6] = test system: MM cells (MM.1S, OPM-1 human tumor cells); settings: 1 microM reversine
From the text: Cell cycle analysis. Cell lines, treated with reversine for 0, 2, 4, 8,16, 24, and 48 hrs were stained using a solution of propidium iodide (Sigma) and RNase A following 70% EtOH fixation.

MM.1S cells = settings: 1 microM reversine, 2-48 hr
Experimental: Immunoblotting analysis. Immunoblotting was performed by scrapping cells (1×10^6), centrifuged briefly and lysed for 30 min on ice in 50 mM Tris-HCl, pH 8.0, containing 120 mM NaCl and 1% Igepal, supplemented with the Complete-TM mixture of proteinase inhibitors. The samples were cleared by centrifugation (14,000 rpm, 30 min, 4° C.) and assessed for protein concentration. SDS-polyacrylamide gel electrophoresis (12%) was performed (30-50 μg of protein per lane) and the proteins were electroblotted onto PVDF membranes. After 1 hour incubation in blocking solution (5% milk in TBST), the membranes were exposed to primary antibody overnight at 4° C. Following washing in TBST, the respective secondary HRP-labeled antibody was added at 1:20,000 dilution for 1 hr at room temperature. The membrane was then washed with TBST for 45-60 min with multiple changes of the wash buffer. Following washing, the protein expression was visualized using the ECL technique. The primary antibodies used for immunoblotting were purchased from Santa Cruz Biotechnology (Santa Cruz, Calif.), Upstate Biotechnologies (Lake Placid, N.Y.) or Cell Signaling (Beverly, Mass.). Secondary antibodies were purchased from (Jackson ImmunoResearch West Grove, Pa.).

various kinases = settings: 500 nM
Experimental: In vitro activity against kinases. Kinase activity was screened using 500 nM of reversine (in 1% DMSO) and ATP using the Invitrogen Z′-LYTE™ kinase assay platform (Invitrogen). In summary, in first reaction the kinase transfers the gamma-phosphate of ATP to a single tyrosine, serine or threonine residue in a synthetic FRET-peptide. In the secondary reaction, a site-specific protease recognizes and cleaves non-phosphorylated FRET-peptides. To calculate kinase activity, the ratio of donor emission to acceptor emission after excitation of the fluorophore at 400 nm was compared.

various phosphatases = settings: 500 nM
Experimental: In vitro activity against phosphatases. In vitro phosphatase activity was screened at 500 nM reversine using the DiFMUP technology (Molecular Probes). Briefly, 6,8-difluoro-4-methylumbelliferyl phosphate substrate is combined with ATP and drug. The removal of the phosphate group on 6,8-difluoro-4-methylumbelliferyl yields a more fluorescent version of the substrate than the non-hydrolyzed form. The amount of fluorescent signal directly corresponds to the level of phosphatase activity.

[7] = test system: GFP-luc expressing MM.1R cells; settings: 72 hrs, luciferase readout
Experimental: (§2) Activity against myeloma cells in co-culture with bone marrow stromal cells. Co-culture Stromal cells were plated at a density of 10,000 cells per well in optical 96-well plates and were incubated for 24 hrs to allow for attachment. Tumor cell lines stably expressing luciferase were plated at 1500 cells per well. Cells were treated immediately following plating and incubated for 72 hrs. Luciferin substrate was added to cultures, mixed, and incubated at room temperature. Samples were read using a Luminoskan luminometer (Labsystems, Ramsey, Minn.).

[8] = test system: GFP-luc expressing MM.1S cells; settings: 72 hrs, luciferase readout
Experimental: as §2

MR20 myeloma cells = settings: 72 hours
Experimental: Treatment of reversine in the Side Populations of MR20 myeloma cells. MR20 cells were plated at a density of 1×10*5 cells/mL in RPMI media supplemented with Pen/Strep and 10% FBS. Reversine was added to the cells at a range of concentrations, the cells were then incubated for 72 hrs at 37 degrees C. Following the incubation period, the cells were collected and stained with Hoescht, and counter stained with 7-AAD. Reserpine, a inhibitor of the membrane transporter, was added to a sample of control cells to identify the “side population” cells (control). The samples were then analyzed on a BD FACS Aria with a UV laser to excite the Hoescht stain. The samples were first gated on the cellular fraction (by forward and side scatter), then on the viable cells (7-AAD negative), then on the Hoescht-Blue negative Hoescht-Red negative fraction representing the Side Population.

chicken B-cell line DT40 = settings: FIG. 13
OPM2 cells = settings: oral gavage, 1 mg/kg twice weekly
From the text: Anti-myeloma activity in animals. […] Briefly, male (6 to 8-week old) SCID/Beige mice, housed and monitored in the Animal Research Facility of the Dana-Farber Cancer Institute, were irradiated (300 rads) using Cs^137 gamma-irradiator source, and received (24 hrs post-irradiation) tail i.v. injections of 10^6 OPM2 cells suspended in total volume of 200 microL of phosphate buffered saline (PBS) per mouse. Mice were monitored for changes in body weight and signs of infection or paralysis. In accordance with institutional guidelines, mice were sacrificed by CO2 inhalation in the event of paralysis or major compromise in their quality of life. All experimental procedures and protocols had been approved by the Animal Care and Use Committee of the Dana-Farber Cancer Institute. Overall survival (defined as time between i.v. injection of tumor cells and sacrifice or death) was compared in control vs. 1 mg/mg reversine-treated (P.O. twice weekly) mice by Kaplan-Meier method.

For `c1nc2nc(NC3CCCCC3)nc(Nc3ccc(N4CCOCC4)cc3)c2[nH]1` [retreversine], the “anti-MM activity in comparison with reversine” value (MM cells [1]) was “reduced activity”.
For `c1nc2nc(Nc3ccc(N4CCOCC4)cc3)nc(NC3CCCCC3)c2[nH]1` [reversine, 2-(4-morpholinoanilino)-6-cyclohexylaminopurine], the “concentration with significant anti-tumor activity” value ([2]; in many cases) was ≤ 1 µM, the “anti-tumor effects in tumor cell lines” value ([2]; myeloma, leukemia, lymphoma and thyroid lines, FIG. 1) was “anti-tumor effects in a broad range of tumor cell lines” and the “anti-tumor effect, potency in words” value ([2]; subset of MM cell lines) was “sub-micro molar anti-tumor effect”. The survival rate ([2]; wide variety of tumor cell lines, reversine between 1 and 10 μM, 72 hour exposure) was 0%, the “anti-MM activity of combination” value (MM cells [3]) was “greater than additive” and the “difference in normalized effect with versus without cytokines” value (MM.1S tumor cell line; 10 μM reversine) was “virtually no difference”. The tumor cell viability (MM.1S tumor cell line; presence or absence of cytokines (IL-6, IGF)) was “dose dependent decrease in tumor cell viability”, the toxicity to hepatocytes (hepatocytes) was “minimal toxicity” and the “toxicity to PBMCs stimulated with phytohaemagglutinin” value ([4]; PHA-stimulated, in vitro) was “limited toxicity”. The “toxicity to PBMCs” value ([4]; unstimulated, doses as high as 10 microM) was “does not cause major toxicity”, the “dose with anti-MM activity” value [5] was ≤ 1 µM and the “toxicity to stromal cells” value (stromal cells) was “minimal toxicity”. The “treatment time that commits cells to death” value (MM cell lines) was “less than 24 hrs”, the “exposure time after which the sub-G0 fraction increases” value [6] was “more than 16 hr” and the “time of G2 arrest after initial exposure” value [6] was 8 to 16 h. For the same compound, the “B-raf and Akt levels” value (MM.1S cells) was “inhibition of B-raf and Akt levels”, the “apoptosis markers (caspase 3, PARP)” value (MM.1S cells) was “cleavge of caspase 3 and PARP” and the “effect on chaperone proteins Hsp70 and Hsp90” value (MM.1S cells) was “minimal affects”. For the same compound, the “phospho-specific proteins (phospho-Akt, phospho-MEK, phospho-MAPK, phospho-IKB, phospho-p70S6K)” value (MM.1S cells; no increase in total protein levels) was “increased levels”, the “inhibition of kinase activity” value (various kinases) was “inhibition of kinase activity was observed” and the “inhibition of phosphatase activity” value (various phosphatases) was “inhibition of phosphatase activity was not seen”. For the same compound, the “sensitivity in co-culture with bone marrow stromal cells” value [7] was “increased”, the “sensitivity in co-culture with bone marrow stromal cells” value [8] was “increased” and the “sensitivity of side population (SP) cells versus main population” value (MR20 myeloma cells) was “more sensitive than the main population”. The “percentage of SP cells” value (MR20 myeloma cells; increasing concentrations) was “decreased with increasing doses”, the “sensitivity of syk-expressing versus syk-/- DT40 cells” value (chicken B-cell line DT40) was “more sensitive” and the “survival compared to control mice” value (OPM2 cells) was “Survival was extended”.
